Experimental data taken from patent US20250243488A1, “METHODS OF MODULATING PROGRANULIN EXPRESSION USING ANTISENSE OLIGONUCLEOTIDES TARGETING REGULATORY RNAS” (Camp4 Therapeutics Corporation, priority 2022, published 2025).
Oligonucleotides are written 5' to 3', each unit as a sugar letter and its base; * is a phosphorothioate linkage, no mark a phosphodiester; rarer units and linkages stand in square brackets, end groups in braces. Plain capitals give the bases only. e = 2'-O-(2-methoxyethyl) (MOE); l = locked nucleic acid (LNA); [5mC] = 5-methylcytosine

Tested on: mGrn mRNA
Test: mGrn mRNA qPCR in Neuro2a cells transfected with ASOs
Assay type: cell-based, mouse
Settings: transfection

| Substance | 40 nM FC (mGrn mRNA) (Table 15, Neuro2a) [FC] | 80 nM FC (mGrn mRNA) (Table 15, Neuro2a) [FC] | 160 nM FC (mGrn mRNA) (Table 15, Neuro2a) [FC] | 40 nM FC (mGrn mRNA) (Table 16, Neuro2A) [FC] | 80 nM FC (mGrn mRNA) (Table 16, Neuro2A) [FC] | 160 nM FC (mGrn mRNA) (Table 16, Neuro2A) [FC] |
| --- | --- | --- | --- | --- | --- | --- |
| CO-5302: CO-3544 modified to include PO/PS bonds (antisense lG*lT*eT*l[5mC]*eT*l[5mC]*e[5mC]*l[5mC]*eT*lA*eG*l[5mC]*eT*lG*eT*lG*lT*eA*lG*lT) | 1.3 | 1.2 | 1.0 | – | – | – |
| CO-5303: CO-3595 modified to include varying PO/PS internucleotide bonds (antisense e[5mC]*e[5mC]*eTeGeAeAe[5mC]eTeGeTeAeTeGeGe[5mC]eTeG*eA*e[5mC]*e[5mC]) | – | – | – | 1.3 | 1.6 | 1.8 |
| CO-5304: CO-3595 modified to include varying PO/PS internucleotide bonds (antisense e[5mC]*e[5mC]*eT*eG*eAeAe[5mC]eTeGeTeAeTeGeGe[5mC]eTeG*eA*e[5mC]*e[5mC]) | – | – | – | 1.4 | 1.6 | 2.2 |
| CO-5305: CO-3595 modified to include varying PO/PS internucleotide bonds (antisense e[5mC]*e[5mC]*eT*eG*eA*eA*e[5mC]eTeGeTeAeTeGeGe[5mC]eTeG*eA*e[5mC]*e[5mC]) | – | – | – | 1.2 | 1.4 | 1.6 |
| CO-5306: CO-3595 modified to include varying PO/PS internucleotide bonds (antisense e[5mC]*e[5mC]*eT*eG*eA*eA*e[5mC]*eT*eGeTeAeTeGeGe[5mC]eTeG*eA*e[5mC]*e[5mC]) | – | – | – | 1.2 | 1.0 | 1.3 |
| CO-5307: CO-3595 modified to include varying PO/PS internucleotide bonds (antisense e[5mC]*e[5mC]*eT*eG*eA*eA*e[5mC]*eT*eG*eT*eAeTeGeGe[5mC]eTeG*eA*e[5mC]*e[5mC]) | – | – | – | 1.0 | 1.1 | 1.1 |
| CO-5308: CO-3595 modified to include varying PO/PS internucleotide bonds (antisense e[5mC]*e[5mC]*eT*eG*eA*eA*e[5mC]*eT*eG*eT*eA*eT*eGeGe[5mC]eTeG*eA*e[5mC]*e[5mC]) | – | – | – | 1.3 | 1.4 | 2.0 |
| CO-5309: CO-3595 modified to include varying PO/PS internucleotide bonds (antisense e[5mC]*e[5mC]*eTeGeAeAe[5mC]eTeGeTeAeTeGeGe[5mC]eT*eG*eA*e[5mC]*e[5mC]) | – | – | – | 1.3 | 1.7 | 2.0 |
| CO-5310: CO-3595 modified to include varying PO/PS internucleotide bonds (antisense e[5mC]*e[5mC]*eTeGeAeAe[5mC]eTeGeTeAeTeGeG*e[5mC]*eT*eG*eA*e[5mC]*e[5mC]) | – | – | – | 1.1 | 1.1 | 1.3 |
| CO-5311: CO-3595 modified to include varying PO/PS internucleotide bonds (antisense e[5mC]*e[5mC]*eTeGeAeAe[5mC]eTeGeTeAeT*eG*eG*e[5mC]*eT*eG*eA*e[5mC]*e[5mC]) | – | – | – | 1.5 | 1.7 | 1.7 |
| CO-5312: CO-3595 modified to include varying PO/PS internucleotide bonds (antisense e[5mC]*e[5mC]*eTeGeAeAe[5mC]eTeGeT*eA*eT*eG*eG*e[5mC]*eT*eG*eA*e[5mC]*e[5mC]) | – | – | – | 1.5 | 1.7 | 1.8 |
